# Reference: ChEMBL document CHEMBL1201862, “PubChem BioAssay data set” (2004)
# Calls of active or inactive are those of the source.
# Columns and labels:
# [1] = target: T1, Dual specificity protein phosphatase 6 (Rattus norvegicus, UniProt Q64346); format: functional
# T1 sequence (Q64346 whole entry): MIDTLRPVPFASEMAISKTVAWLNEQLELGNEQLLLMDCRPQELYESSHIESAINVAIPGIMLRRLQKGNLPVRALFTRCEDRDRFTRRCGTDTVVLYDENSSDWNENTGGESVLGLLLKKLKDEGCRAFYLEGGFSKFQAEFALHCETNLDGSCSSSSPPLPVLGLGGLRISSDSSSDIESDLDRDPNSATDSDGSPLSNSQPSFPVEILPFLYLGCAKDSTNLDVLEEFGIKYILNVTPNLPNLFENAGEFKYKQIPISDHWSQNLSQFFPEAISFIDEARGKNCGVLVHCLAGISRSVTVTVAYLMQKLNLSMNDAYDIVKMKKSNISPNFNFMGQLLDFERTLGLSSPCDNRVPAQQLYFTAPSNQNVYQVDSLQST
# [2] = target: T2, Dual specificity protein phosphatase 3 (Homo sapiens, UniProt P51452); assay: SAR VHR1 Fluorescent Assay for In Vitro dose response studies Set 2. [Related pubchem assays (depositor defined):AID1654, AID1661, AID1878]; format: functional
# [3] = target: T3, Tyrosine-protein phosphatase non-receptor type 7 (Homo sapiens, UniProt P35236); assay: inhibition of hematopoietic tyrosine phosphatase HePTP – biochemical, set 2, SAR follow-up (AID 449736); format: functional
# T3 sequence (P35236 whole entry): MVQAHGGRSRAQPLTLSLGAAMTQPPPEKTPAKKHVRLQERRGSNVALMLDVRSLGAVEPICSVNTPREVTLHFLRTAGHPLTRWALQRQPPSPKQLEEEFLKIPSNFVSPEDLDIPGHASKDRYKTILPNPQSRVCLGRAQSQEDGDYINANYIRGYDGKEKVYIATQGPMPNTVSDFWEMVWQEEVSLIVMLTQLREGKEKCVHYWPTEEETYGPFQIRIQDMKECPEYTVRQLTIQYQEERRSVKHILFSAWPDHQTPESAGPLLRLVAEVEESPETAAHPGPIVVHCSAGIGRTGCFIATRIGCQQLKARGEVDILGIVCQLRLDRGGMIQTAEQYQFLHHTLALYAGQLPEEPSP
# [4] = target: T3, Tyrosine-protein phosphatase non-receptor type 7; assay: redox-active compounds inhibiting HePTP phosphatase – biochemical, fluorescence, mechanism study (AID 2068); format: functional
# [5] = target: T3, Tyrosine-protein phosphatase non-receptor type 7; assay: SAR analysis of chemical inhibitors of HePTP using a Fluorescent assay - Set 2. [Related pubchem assays (depositor defined):AID1059, AID1077, AID1661, AID2085, AID521]; format: functional
# [6] = target: T2, Dual specificity protein phosphatase 3; assay: SAR VHR1 absorbance Assay for In Vitro dose response studies. [Related pubchem assays (depositor defined):AID1654, AID1661, AID1878, AID1992, AID2004]
# [7] = target: T1, Dual specificity protein phosphatase 6; assay: SAR analysis of inhibitors of MKP-3 - Set 2. [Related pubchem assays (depositor defined):AID1055, AID1661, AID425, AID553, AID566]; format: functional
# [8] = target: T2, Dual specificity protein phosphatase 3; assay: SAR VHR1 Fluorescent Assay for In Vitro dose response studies. [Related pubchem assays (depositor defined):AID1654, AID1661, AID1878, AID1992, AID2004, AID2070, AID2085]; format: functional
# Troponin, cardiac muscle = Troponin, cardiac muscle (Homo sapiens, UniProt P19429+P45379+P63316); assay: Fluorescence-based biochemical high throughput dose response assay for activators of the calcium sensitivity of cardiac Regulated Thin Filaments (RTF). [Related pubchem assays (depositor defined):AID493008, AID493018, AID504382, AID504383]; format: protein-complex assay
# [9] = target: Kappa-type opioid receptor (Homo sapiens, UniProt P41145); assay: SAR analysis of small molecule agonists of the kappa opioid receptor via a luminescent beta-arrestin assay - Set 3. [Related pubchem assays (depositor defined):AID1777, AID1785, AID1786, AID1966, AID2133, AID2136, AID2284, AID2500]; format: functional
# [10] = target: T4, Intestinal-type alkaline phosphatase (Homo sapiens, UniProt P09923); assay: human intestinal alkaline phosphatase activators, dose response, biochemical, luminescence, uHTS hits (AID 463120); format: functional
# [11] = target: T5, Ubiquitin-conjugating enzyme E2 N (Homo sapiens, UniProt P61088); format: functional
# T5 sequence (P61088 whole entry): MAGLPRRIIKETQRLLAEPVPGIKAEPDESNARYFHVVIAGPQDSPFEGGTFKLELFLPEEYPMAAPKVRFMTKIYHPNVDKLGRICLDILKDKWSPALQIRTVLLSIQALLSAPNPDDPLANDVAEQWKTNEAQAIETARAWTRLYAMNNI
# [12] = target: T5, Ubiquitin-conjugating enzyme E2 N; format: functional; remark: listed apart in the source
# Bcl-2-related protein A1 = target: T6, Bcl-2-related protein A1 (Mus musculus, UniProt Q07440); format: functional;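 also: confirmatory dose–response counterscreen on Bfl-1, used to check hits from a UBC13 polyubiquitin inhibitor campaign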
# T6 sequence (Q07440 whole entry): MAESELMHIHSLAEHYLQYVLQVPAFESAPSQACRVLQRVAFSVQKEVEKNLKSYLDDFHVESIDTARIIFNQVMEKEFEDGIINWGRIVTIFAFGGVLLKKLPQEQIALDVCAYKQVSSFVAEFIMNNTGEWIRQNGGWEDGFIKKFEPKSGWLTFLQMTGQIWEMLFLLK
# [13] = viability of uninfected HEp-2 cells – cell-based, HTS, cytotoxicity control for RSV inhibitor project, dose response (AID 2410); format: functional; settings: human respiratory syncytial virus
# SUMO-activating enzyme [14] = target: T7, SUMO-activating enzyme (Homo sapiens, UniProt Q9UBT2); assay: blockers of UBC9-mediated SUMO conjugation – biochemical, AlphaScreen, SUMOylation inhibitor project, confirmation (AID 2018); format: functional
# [15] = target: T8, Voltage-gated N-type calcium channel alpha-1B subunit/Amyloid beta A4 precursor protein-binding family A member 1 (Homo sapiens, UniProt Q00975+Q02410); format: protein assay
# [16] = target: T8, Voltage-gated N-type calcium channel alpha-1B subunit/Amyloid beta A4 precursor protein-binding family A member 1; format: protein assay; remark: listed apart in the source
# SUMO-activating enzyme [17] = target: T7, SUMO-activating enzyme; assay: blockers of SAE1/SAE2–UBC9 SUMO transfer – biochemical, HTRF, uHTS, primary screen (AID 2006); format: protein-complex assay
# [18] = target: T4, Intestinal-type alkaline phosphatase; assay: activation of human intestinal alkaline phosphatase – biochemical, luminescent, uHTS hits, set 2, dose response (AID 488817); format: functional;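 also: potency of activators that raise enzyme activity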
# [19] = target: T9, Mannose-6-phosphate isomerase (Homo sapiens, UniProt P34949); assay: Confirmation of compounds inhibiting phosphomannose isomerase (PMI) via a fluorescence intensity assay using a high concentration of mannose 6-phosphate. [Related pubchem assays (depositor defined):AID1209, AID1220, AID1545, AID1553, AID1620]
# T9 sequence (P34949 whole entry): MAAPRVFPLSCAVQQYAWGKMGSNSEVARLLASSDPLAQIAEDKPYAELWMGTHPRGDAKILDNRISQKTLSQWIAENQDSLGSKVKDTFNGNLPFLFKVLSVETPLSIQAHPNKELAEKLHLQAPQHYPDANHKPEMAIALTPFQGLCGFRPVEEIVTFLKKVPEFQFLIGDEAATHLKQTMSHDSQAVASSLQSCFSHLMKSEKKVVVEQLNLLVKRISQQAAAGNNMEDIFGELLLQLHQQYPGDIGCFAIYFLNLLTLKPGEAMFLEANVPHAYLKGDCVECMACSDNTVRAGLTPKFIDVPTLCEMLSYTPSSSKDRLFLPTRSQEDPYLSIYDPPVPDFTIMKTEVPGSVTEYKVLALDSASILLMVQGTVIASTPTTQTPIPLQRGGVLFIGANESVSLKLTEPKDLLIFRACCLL
# [20] = target: Heat shock protein HSP 90-alpha (Homo sapiens, UniProt P07900); format: functional, organism-based
# [21] = target: T10, Endoribonuclease toxin MazF (Escherichia coli K-12, UniProt P0AE70); assay: activation of MazEF endoribonuclease cleavage – biochemical, fluorescence, single-stranded RNA substrate, uHTS hits, dose response (AID 588481); format: functional
# T10 sequence (P0AE70 whole entry): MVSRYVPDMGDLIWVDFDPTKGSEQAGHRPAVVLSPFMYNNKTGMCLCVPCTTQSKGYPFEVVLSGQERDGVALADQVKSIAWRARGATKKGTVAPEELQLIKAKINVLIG
# [22] = target: T10, Endoribonuclease toxin MazF; assay: substrate-only fluorescence increase artefacts – biochemical, single-stranded RNase substrate, counter-screen for MazEF activator project, dose response (AID 588502); format: functional
# [23] = target: T9, Mannose-6-phosphate isomerase; assay: phosphomannose isomerase inhibition – biochemical, fluorescence intensity, confirmation (AID 1535)
# [24] = target: Alkaline phosphatase, placental type (Homo sapiens, UniProt P05187); assay: human placental alkaline phosphatase inhibition – biochemical, luminescence, confirmation (AID 1512); format: functional
# CHO = CHO cell viability loss, potency – luminescence, cytotoxicity control for TLR9-MyD88 binding inhibitor project, dose response (AID 588339); format: functional, cell-based, hamster; settings: Cricetulus griseus;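 also: CHO cells stably coexpressing TLR9 and MyD88 fusions from primary screen; compound exposure lasted 48 hours before viability readout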
# [25] = microbe, parasite or virus in culture; format: functional; settings: Mycobacterium tuberculosis
# [26] = target: Intestinal-type alkaline phosphatase (Mus musculus, UniProt P24822); assay: PubChem AID 488874; format: functional
# [27] = antiviral efficacy against SV40, host toxicity – BSC cells, set 3, confirmation (AID 485276); format: functional, cell-based
# Large T antigen = Large T antigen (Simian virus 40, UniProt P03070); assay: A confirmatory biochemical assay using the ADP-Hunter methodology, purified TAg, and ATP to quantify activity of synthesized compounds that inhibit the ATPase activity of Tag (3). [Related pubchem assays (depositor defined):AID1903, AID1909, AID2102, AID2501, AID2615, AID2775, AID435001, AID449729]; design: species or system Betapolyomavirus macacae
# Cannabinoid receptor 1 [28] = target: T11, Cannabinoid receptor 1 (Homo sapiens, UniProt P21554); assay: SAR analysis of antagonists of the Cannabinoid Receptor 1 using an Image-Based Assay - Set 3. [Related pubchem assays (depositor defined):AID1961, AID1965]; format: functional
# [29] = target: T12, G-protein coupled receptor 35 (Homo sapiens, UniProt Q9HC97); assay: SAR analysis of Agonists of the GPR35 Receptor using an Image-Based Assay - Set 3. [Related pubchem assays (depositor defined):AID1961, AID1965]; format: functional
# [30] = target: T12, G-protein coupled receptor 35; assay: SAR analysis of Antagonists of the GPR35 Receptor using an Image-Based Assay - Set 4. [Related pubchem assays (depositor defined):[…]]; format: functional
# [31] = target: G-protein coupled receptor 55 (Homo sapiens, UniProt Q9Y2T6); assay: SAR analysis of selective Agonists of GPR55 using an Image-Based Assay - Set 2. [Related pubchem assays (depositor defined):AID1961, AID1965]; format: functional
# Cannabinoid receptor 2 [32] = target: T13, Cannabinoid receptor 2 (Homo sapiens, UniProt P34972); assay: SAR analysis of agonists of the Cannabinoid Receptor 2 using an Image-Based Assay - Set 2. [Related pubchem assays (depositor defined):AID1961, AID1965]; format: functional
# Cannabinoid receptor 2 [33] = target: T13, Cannabinoid receptor 2; assay: SAR analysis of antagonists of the Cannabinoid Receptor 2 using an Image-Based Assay - Set 2. [Related pubchem assays (depositor defined):AID1961, AID1965]; format: functional
# Cannabinoid receptor 1 [34] = target: T11, Cannabinoid receptor 1; assay: SAR analysis of agonists of the Cannabinoid Receptor 1 using an Image-Based Assay - Set 3. [Related pubchem assays (depositor defined):AID1961, AID1965]; format: functional
# T4 sequence (P09923 whole entry): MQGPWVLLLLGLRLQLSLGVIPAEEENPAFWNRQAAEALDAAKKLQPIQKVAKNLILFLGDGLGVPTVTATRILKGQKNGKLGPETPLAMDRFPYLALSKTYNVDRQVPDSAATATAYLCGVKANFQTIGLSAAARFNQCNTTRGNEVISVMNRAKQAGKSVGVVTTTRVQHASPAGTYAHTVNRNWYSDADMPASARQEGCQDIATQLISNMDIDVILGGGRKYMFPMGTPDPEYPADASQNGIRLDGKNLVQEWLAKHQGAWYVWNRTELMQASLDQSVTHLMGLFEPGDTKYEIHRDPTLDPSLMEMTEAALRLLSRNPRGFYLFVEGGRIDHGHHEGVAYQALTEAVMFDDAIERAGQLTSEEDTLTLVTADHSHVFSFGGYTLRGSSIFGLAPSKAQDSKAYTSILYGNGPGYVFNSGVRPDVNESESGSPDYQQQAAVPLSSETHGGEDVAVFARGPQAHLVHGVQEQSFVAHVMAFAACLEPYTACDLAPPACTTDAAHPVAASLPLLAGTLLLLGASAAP
# T2 sequence (P51452 whole entry): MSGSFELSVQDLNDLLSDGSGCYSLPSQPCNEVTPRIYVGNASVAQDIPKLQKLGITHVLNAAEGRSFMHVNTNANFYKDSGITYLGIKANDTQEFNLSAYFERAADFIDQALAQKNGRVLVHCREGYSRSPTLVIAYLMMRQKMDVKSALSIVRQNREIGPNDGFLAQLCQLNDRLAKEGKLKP
# T7 sequence (Q9UBE0 whole entry): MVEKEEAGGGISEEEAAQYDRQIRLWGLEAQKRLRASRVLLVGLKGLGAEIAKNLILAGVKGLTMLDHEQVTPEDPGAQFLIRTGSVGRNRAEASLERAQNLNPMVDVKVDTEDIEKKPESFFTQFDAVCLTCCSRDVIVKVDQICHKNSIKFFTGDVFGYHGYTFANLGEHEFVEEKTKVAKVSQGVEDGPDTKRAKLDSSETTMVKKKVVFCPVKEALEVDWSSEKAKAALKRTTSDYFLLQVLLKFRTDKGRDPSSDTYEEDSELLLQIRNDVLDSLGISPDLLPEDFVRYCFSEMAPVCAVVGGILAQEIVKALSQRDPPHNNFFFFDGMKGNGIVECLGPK
# T7 sequence (Q9UBT2 whole entry): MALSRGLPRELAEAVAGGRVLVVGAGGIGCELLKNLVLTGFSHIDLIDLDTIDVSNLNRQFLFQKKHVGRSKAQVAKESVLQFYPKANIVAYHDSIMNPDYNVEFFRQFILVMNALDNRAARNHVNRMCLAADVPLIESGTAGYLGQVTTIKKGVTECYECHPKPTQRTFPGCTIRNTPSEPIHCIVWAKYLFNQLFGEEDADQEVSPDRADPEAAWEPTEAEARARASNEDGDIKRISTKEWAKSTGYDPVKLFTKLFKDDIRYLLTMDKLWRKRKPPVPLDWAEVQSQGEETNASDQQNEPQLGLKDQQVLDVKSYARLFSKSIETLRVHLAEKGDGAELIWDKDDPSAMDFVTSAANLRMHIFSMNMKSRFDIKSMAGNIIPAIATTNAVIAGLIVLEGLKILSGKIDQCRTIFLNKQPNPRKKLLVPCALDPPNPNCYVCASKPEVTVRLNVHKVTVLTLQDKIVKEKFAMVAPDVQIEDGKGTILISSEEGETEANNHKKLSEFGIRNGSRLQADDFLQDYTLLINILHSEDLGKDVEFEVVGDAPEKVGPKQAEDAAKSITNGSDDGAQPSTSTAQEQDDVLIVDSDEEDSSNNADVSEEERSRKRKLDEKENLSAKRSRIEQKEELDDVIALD
# Sequence of Alkaline phosphatase, placental type (P05187 whole entry, the tested form may be a part): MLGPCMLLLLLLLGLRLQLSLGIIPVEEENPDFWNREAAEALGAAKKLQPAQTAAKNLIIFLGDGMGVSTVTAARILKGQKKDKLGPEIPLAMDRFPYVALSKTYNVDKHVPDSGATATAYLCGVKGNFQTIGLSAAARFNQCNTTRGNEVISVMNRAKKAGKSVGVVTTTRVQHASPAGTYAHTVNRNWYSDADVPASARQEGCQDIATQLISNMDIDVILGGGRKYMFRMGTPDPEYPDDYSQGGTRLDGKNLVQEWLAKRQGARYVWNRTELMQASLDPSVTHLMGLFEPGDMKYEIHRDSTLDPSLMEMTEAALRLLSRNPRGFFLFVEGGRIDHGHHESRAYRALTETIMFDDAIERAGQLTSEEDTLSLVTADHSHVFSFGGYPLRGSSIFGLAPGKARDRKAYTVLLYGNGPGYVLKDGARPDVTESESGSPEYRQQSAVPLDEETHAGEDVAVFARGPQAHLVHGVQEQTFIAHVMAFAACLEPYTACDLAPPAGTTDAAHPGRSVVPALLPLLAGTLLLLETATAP
# T11 sequence (P21554 whole entry): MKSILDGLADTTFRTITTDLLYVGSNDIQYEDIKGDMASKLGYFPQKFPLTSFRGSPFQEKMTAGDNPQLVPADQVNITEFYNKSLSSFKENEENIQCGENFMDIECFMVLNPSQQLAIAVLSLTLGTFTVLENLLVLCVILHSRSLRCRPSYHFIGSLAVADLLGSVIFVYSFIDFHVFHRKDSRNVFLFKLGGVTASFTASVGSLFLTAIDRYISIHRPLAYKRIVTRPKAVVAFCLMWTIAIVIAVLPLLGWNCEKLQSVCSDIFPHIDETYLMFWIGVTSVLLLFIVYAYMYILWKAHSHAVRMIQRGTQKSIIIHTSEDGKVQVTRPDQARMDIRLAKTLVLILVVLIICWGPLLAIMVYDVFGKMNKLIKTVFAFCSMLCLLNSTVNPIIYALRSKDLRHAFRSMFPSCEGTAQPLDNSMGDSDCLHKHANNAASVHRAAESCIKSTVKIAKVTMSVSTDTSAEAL
# T13 sequence (P34972 whole entry): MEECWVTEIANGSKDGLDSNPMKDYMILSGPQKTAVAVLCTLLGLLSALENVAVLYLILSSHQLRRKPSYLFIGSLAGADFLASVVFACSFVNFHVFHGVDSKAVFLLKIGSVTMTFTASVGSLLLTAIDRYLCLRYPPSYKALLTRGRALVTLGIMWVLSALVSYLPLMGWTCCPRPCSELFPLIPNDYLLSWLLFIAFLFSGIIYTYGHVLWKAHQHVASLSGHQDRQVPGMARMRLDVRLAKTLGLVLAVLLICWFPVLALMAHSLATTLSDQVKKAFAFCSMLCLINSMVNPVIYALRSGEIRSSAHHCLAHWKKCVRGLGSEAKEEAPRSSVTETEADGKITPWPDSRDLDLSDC
# T12 sequence (Q9HC97 whole entry): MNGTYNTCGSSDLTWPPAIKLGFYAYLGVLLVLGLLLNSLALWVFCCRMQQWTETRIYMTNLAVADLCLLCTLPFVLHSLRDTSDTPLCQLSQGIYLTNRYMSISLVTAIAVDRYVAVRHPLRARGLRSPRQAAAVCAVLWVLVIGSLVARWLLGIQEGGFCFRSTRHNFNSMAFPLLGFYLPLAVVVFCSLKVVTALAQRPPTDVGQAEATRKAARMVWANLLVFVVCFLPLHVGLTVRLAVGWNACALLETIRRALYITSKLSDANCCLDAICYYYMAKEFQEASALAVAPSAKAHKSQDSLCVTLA
# Sequence of Large T antigen (P03070 whole entry): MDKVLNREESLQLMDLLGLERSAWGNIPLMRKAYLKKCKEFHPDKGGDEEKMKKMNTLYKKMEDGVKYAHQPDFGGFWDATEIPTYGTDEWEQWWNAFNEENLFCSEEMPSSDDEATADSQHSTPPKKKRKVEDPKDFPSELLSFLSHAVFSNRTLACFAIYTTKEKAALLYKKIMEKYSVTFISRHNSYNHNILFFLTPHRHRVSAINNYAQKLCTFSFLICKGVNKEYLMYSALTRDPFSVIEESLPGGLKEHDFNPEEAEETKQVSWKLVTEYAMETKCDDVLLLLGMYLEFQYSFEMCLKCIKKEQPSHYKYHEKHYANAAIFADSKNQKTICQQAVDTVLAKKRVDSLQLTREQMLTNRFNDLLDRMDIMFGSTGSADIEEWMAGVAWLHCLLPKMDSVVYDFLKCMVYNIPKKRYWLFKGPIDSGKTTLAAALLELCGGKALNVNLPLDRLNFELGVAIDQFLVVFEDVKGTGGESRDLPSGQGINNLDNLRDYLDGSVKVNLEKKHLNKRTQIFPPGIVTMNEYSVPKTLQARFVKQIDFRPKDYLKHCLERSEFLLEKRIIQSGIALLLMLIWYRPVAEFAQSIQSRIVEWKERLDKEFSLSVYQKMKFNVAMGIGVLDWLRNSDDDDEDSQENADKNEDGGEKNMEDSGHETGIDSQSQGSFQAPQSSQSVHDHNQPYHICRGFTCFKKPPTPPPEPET
# Sequence of Kappa-type opioid receptor (P41145 whole entry): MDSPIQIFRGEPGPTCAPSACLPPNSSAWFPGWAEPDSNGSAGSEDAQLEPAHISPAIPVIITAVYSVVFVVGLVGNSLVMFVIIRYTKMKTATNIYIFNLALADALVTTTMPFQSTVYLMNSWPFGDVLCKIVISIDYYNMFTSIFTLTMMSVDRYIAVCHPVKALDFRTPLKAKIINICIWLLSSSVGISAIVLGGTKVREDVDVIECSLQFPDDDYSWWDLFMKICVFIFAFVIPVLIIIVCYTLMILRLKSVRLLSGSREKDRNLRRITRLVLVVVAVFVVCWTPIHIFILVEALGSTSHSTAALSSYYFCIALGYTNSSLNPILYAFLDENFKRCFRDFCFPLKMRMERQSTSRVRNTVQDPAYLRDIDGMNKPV
# Sequence of G-protein coupled receptor 55 (Q9Y2T6 whole entry): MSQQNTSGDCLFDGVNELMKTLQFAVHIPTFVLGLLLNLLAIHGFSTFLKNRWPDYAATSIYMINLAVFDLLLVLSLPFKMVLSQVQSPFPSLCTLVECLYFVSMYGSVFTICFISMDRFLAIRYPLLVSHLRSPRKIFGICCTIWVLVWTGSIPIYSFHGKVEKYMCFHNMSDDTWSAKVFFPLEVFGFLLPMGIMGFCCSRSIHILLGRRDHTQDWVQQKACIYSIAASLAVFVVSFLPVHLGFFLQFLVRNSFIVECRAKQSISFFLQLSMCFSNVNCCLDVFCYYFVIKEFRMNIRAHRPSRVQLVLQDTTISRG
structure (smiles),measurement,setting,value
NS(=O)(=O)c1ccc(NC(=S)N2CCN(Cc3ccc4c(c3)OCO4)CC2)cc1,IC50,[1],> 99 µM (inactive)
same,IC50,[2],1.69 µM (active)
same,IC50,[3],> 100 µM (inactive)
same,IC50,[4],0.196 µM (active)
same,IC50,[5],4.32 µM (active)
same,IC50,[6],5.41 µM (active)
same,IC50,[7],> 100 µM (inactive)
same,IC50,[8],> 99 µM (inactive)
Cc1sc(NC(=O)CSc2nnc(C(C)C)n2C)c(C#N)c1C,EC50,"Troponin, cardiac muscle",> 71.5 µM (inactive)
CCCCN(Cc1cc2cc(Cl)ccc2[nH]c1=O)C(=O)c1cccs1,EC50,[9],> 20 µM (inactive)
C#CCOCCOCCOCCNc1nc(N2CCN(C(=O)CCCCCCCCCCNC(=O)[C@H]([C@@H](C)CC)n3cc(CCCCN=C(N)N)nn3)CC2)nc(N2CCN(C(=O)CCCCCCCCCCNC(=O)[C@H](CO)n3cc(CCCSC)nn3)CC2)n1,EC50,[10],40.7 µM (active)
same,IC50,[11],3.7 µM (active)
same,IC50,[12],5.99 µM (active)
same,IC50,Bcl-2-related protein A1,3.11 µM (active)
same,CC50,[13],13.7 µM (active)
O=C(N/N=C/c1ccc([N+](=O)[O-])o1)c1cn2ccc3ccccc3c2n1,IC50,SUMO-activating enzyme [14],35.1 µM (active)
same,IC50,[15],> 50 µM (inactive)
same,IC50,[16],> 56.8 µM (not active)
same,IC50,SUMO-activating enzyme [17],> 100 µM (inactive)
O=C1Nc2ccc(Br)cc2C12NNc1ccccc1O2 (centres undefined),EC50,[10],10.1 µM (active)
same,EC50,[18],0.257 µM (active)
same,IC50,[19],> 100 µM (inactive)
same,AC50,[20],3.34 µM (active)
same,EC50,[21],> 99 µM (inactive)
same,EC50,[22],73.1 µM (inactive)
same,IC50,[23],> 100 µM (inactive)
same,IC50,[24],> 100 µM (inactive)
same,IC50,CHO,11.3 µM (inactive)
same,CC50,[25],23.8 µM (active)
same,IC50,[26],8.09 µM (active)
Oc1ccc(Sc2ccc(O)cc2O)c(O)c1,IC50,[27],146 µM (active)
same,IC50,Large T antigen,61.2 µM (active)
Cc1cccc(N2CCN(C(=O)c3cccc(S(=O)(=O)N4CCCCC4)c3)CC2)c1C,IC50,Cannabinoid receptor 1 [28],> 32 µM (inactive)
same,EC50,[29],> 32 µM (inactive)
same,IC50,[30],> 32 µM (inactive)
same,EC50,[31],> 32 µM (inactive)
same,EC50,Cannabinoid receptor 2 [32],> 32 µM (inactive)
same,IC50,Cannabinoid receptor 2 [33],> 32 µM (inactive)
same,EC50,Cannabinoid receptor 1 [34],> 32 µM (inactive)
